Data set [1] concerns the target T1, SmGPR-3 (Schistosoma mansoni, UniProt C4Q8W8).
T1 sequence (C4Q8W8 1-497): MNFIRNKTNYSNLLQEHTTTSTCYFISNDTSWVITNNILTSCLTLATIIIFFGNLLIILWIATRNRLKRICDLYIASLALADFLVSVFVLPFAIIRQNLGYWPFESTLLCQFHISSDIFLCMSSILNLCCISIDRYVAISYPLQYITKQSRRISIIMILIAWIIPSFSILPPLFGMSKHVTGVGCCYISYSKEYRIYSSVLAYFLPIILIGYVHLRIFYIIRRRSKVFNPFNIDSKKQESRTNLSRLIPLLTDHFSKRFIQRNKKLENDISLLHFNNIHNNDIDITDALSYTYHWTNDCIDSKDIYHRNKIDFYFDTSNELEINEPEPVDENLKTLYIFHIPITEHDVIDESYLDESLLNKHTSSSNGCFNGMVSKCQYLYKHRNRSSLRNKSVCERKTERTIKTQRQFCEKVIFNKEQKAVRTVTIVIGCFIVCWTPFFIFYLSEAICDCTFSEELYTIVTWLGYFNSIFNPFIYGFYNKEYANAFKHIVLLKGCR
The data set can be described thus: cell-based. The following applies: for inhibition of SmGPR-3 activity: highest concentration tested, in the presence of 100 µM DA. The source says:
(§1) The SmGPR-3 coding sequence was sub-cloned between the NcoI/XbaI restriction sites of the yeast expression vector Cp4258 (kindly provided by Dr J. Broach, Princeton University, NJ, USA). The functional expression assay was adapted from the protocol of Wang and colleagues as described, [30]. The receptor was expressed in Saccharomyces cerevisiae strain YEX108 (MATα PFUS1-HIS3 PGPA1-Gαq(41)-GPA1-Gaq(5) can1 far1Δ 1442 his3 leu2 lys2 sst2Δ2 ste14::trp1::LYS2 ste18Δ6-3841 ste3Δ1156 tbt1-1 trp1 ura3; kindly provided by J. Broach, Princeton University, NJ, USA). This strain expresses the HIS3 reporter gene under the control of the FUS1 promoter and contains an integrated copy of a chimeric Gα gene in which the first […] and last five codons of native yeast Gα (GPA1) were replaced with those of human Gαq. […] YPD culture medium (1% yeast extract, 2% peptone and 2% dextrose) was used to culture YEX108 strain, according to standard conditions. The lithium acetate method was performed to transform yeast with either empty Cp4258 vector (mock) or Cp4258/SmGPR-3 expression plasmid, using 200 µl mid-log phase cells, 200 µg carrier single stranded DNA (Invitrogen) and 1 µg plasmid. Positive transformants were selected on synthetic complete (SC) 2% glucose solid medium lacking leucine (SC/leu^−). For agonist assays, single colonies of transformants were cultured overnight in SC/leu^− liquid medium at 250 rpm/30°C. The next day, cells were washed four times in SC 2% glucose liquid medium that lacked both leucine and histidine (SC/leu^−/his^−). Cells were finally resuspended in SC/leu^−/his^− medium supplemented with 50 mM 3-(N-morpholino) propanesulfonic acid (MOPS), pH 6.8 and 1.5 mM 3-Amino-1, 2, 4-Triazole (3-AT). The latter was used to reduce basal growth due to endogenous background signalling as it inhibits the gene product of HIS3 [29]. Aliquots containing approximately 3,000 cells were added to individual wells of a 96-well plate containing test agonist or vehicle plus additional medium for a total reaction volume of 100 µl. The plates were incubated at 30°C for 22–26 h, after which 10 µl of Alamar blue (Invitrogen) was added to each well. The plates were returned to the 30°C incubator until the Alamar blue color started to shift to pink (approximately 1–4 h) and fluorescence (560 nm excitation/590 nm emission) was measured at 30°C every hour up to three hours, using a plate fluorometer (FlexStation II, Molecular Devices, US). Antagonist assays were done in a similar way, except that each well contained 10^−4 M agonist (dopamine) and the antagonist at the specified concentration. Data analyses and dose-response curve fits were performed using Prism v5.0 (GraphPad software Inc.).
(§2) Next we examined the effects of classical (mammalian) dopaminergic and other BA antagonists on the activity of SmGPR-3. Drugs were tested initially at a single concentration of 100 µM (10 µM in the case of flupenthixol) in the presence of 100 µM DA (Fig. 4A). […] Those drugs that produced significant inhibition (>50%) in the initial screen were subsequently tested at different concentrations to obtain dose response curves (Fig. 4B–F). […] To test this possibility, we repeated the assay in medium supplemented with histidine (100 µM), which enables cell growth irrespective of receptor activation.
Figure 4 Antagonist effects on SmGPR-3 activity. (A) Yeast YEX108 auxotrophic his strain expressing SmGPR-3 was incubated with agonist (DA, 100 µM) and test antagonist or vehicle. Antagonists were tested at 100 µM except for flupenthixol, which was used at 10 µM.

The test system of data set [2] is S. mansoni schistosomula. The data set can be described thus: Motor activity of schistosomula in culture (frequency of body length changes). It counts as cell-based, Schistosoma mansoni. As to conditions: for concentration at which significant inhibition of motility was observed: range tested 10^−7 M–10^−4 M. The procedure:
3-day old in vitro transformed schistosomula were placed in individual wells of a 24-well plate (30–40 animals/well) in 300 µl of OPTI-MEM+10% dialyzed serum. Following an adaptation period of 15 min at room temperature, test substances were added at a final concentration of 100 µM or as indicated. Animals were monitored 5 min after drug addition by placing the 24-well plate on a compound microscope (Nikon, SMZ1500) equipped with a digital video camera (QICAM Fast 1394, mono 12 bit, Qimaging) and SimplePCI version 5.2 (Compix Inc.) for image acquisition. Images were obtained at a rate of ≈3 frames/s for a period of 1 minute and the data were analyzed with ImageJ software (version 1.41, NIH, USA). Cultured schistosomula display complex motor behaviours that are dominated by repeated changes in length, both shortening and elongation. To quantify this type of movement, we used the “Fit-Ellipse” command of ImageJ to draw best-fit ellipses of individual animals in each recorded frame. An estimate of body length was obtained by measuring the principal (“major”) axis of each ellipse, using calibrated units (µm), and the frequency of length changes during the observation period was calculated. Any change representing >10% of body length, whether an increase or decrease, was included in the calculation; changes ≤10% were disregarded. Between 12–15 animals were monitored per well and the experiment was repeated a minimum of 3 times. To monitor for possible drug induced toxicity, viability tests were performed routinely using the methylene blue dye exclusion assay described by Gold.
To explore this possibility we tested the effects of several SmGPR-3 agonists and antagonists on the motor activity of intact schistosomula in culture. […] We used a larval stage (schistosomula) instead of adult worms because the larvae are better suited for quantitative measurements of movement. […] To quantitate motor activity, we monitored individual schistosomula in the presence and absence of test substances, using a microscope equipped with a video camera and imaging software. Approximately 180 consecutive frames were recorded for each animal over 1 min of observation and the approximate length of the animal in each frame was measured in calibrated units (µm). […] To quantify the level of motor activity, we repeated experiments at different concentrations of each amine and then calculated the frequency of length changes, both decrease and increase for each individual animal during the 1 min of observation. Mean values were obtained from the average of 12–15 animals/experiment and each experiment was repeated a minimum of 3 times.
Figure 7 Effects of dopamine and related substances on schistosome motility. (A) In vitro transformed 3-day-old schistosomula were incubated with test drug, dopamine (DA) or epinine (EPN), each at (10^−4 M) or vehicle (CT, control). Animals were treated for 5 min at room temperature, after which they were examined with a compound microscope equipped with a digital video camera and SimplePCI (Compix Inc.) for image acquisition. Images were recorded for 1 minute (∼3 frames/second) and an estimate of body length in µm was obtained for each animal in every frame. Each tracing shown is of an individual animal and is representative of 12–15 larvae per experiment and 3–4 independent experiments per treatment.

The target in data set [3] is T1, SmGPR-3. The data set can be described thus: cell-based.
Source text: as §1
Functional expression assays were performed in yeast. […] The full-length SmGPR-3 cDNA was ligated to the Cp4258 vector and the recombinant plasmid was transformed into Saccharomyces cerevisae to test for receptor activity. We used a genetically modified S. cerevisae strain that is designed for GPCR activity assays. The yeast is auxotrophic for histidine and expresses a HIS3 reporter gene under the control of the FUS1 promoter. Activation of a recombinant GPCR in this system increases expression of the HIS3 reporter via the yeast's endogenous pheromone response, which in turn allows the cells to grow in selective histidine-deficient medium. Thus receptor activity can be quantified based on measurements of yeast growth in the selective medium, using a fluorometric Alamar Blue assay. Cells transformed with either empty vector (mock control) or SmGPR-3 were initially tested with all different biogenic amines, each at 2×10^−4 M (Fig. 3A).
Yeast cells transformed with empty plasmid were used as a negative control (mock).

In data set [4] the test system is SmGPR-2. Further details: method as in PMID 20430030. As to conditions: cited from earlier work.
Data set [5] concerns Saccharomyces cerevisiae strain YEX108. The data set can be described thus: Drug-induced toxicity control: yeast growth in histidine-supplemented medium. The format is cell-based. As to conditions: medium supplemented with histidine (100 µM); drug-treated cells. The procedure:
as §2
Figure 4 Antagonist effects on SmGPR-3 activity. (A) Yeast YEX108 auxotrophic his strain expressing SmGPR-3 was incubated with agonist (DA, 100 µM) and test antagonist or vehicle. Antagonists were tested at 100 µM except for flupenthixol, which was used at 10 µM. The data were normalized relative to the control sample that contained 100 µM DA but no antagonist. To test for drug induced toxicity, assays were repeated in the presence of 100 µM test antagonist in histidine-supplemented (his+) medium, which enables the cell to grow irrespective of receptor activation (His +ve control; see text for details). Abbreviations are as follows: SPIP, spiperone; PROP, propanolol; CLZP, clozapine; BUSP, buspirone; MINS, mianserin; CPRH, cyproheptadine; FLPX, flupenthixol; PRMZ, promethazine; HLRD, haloperidol. […] The error bars are the means ± SEM for 3–4 experiments and at least 2 clones (in triplicates).

Setting [6] is: drug 100 µM in the presence of 100 µM DA.
[7] abbreviates: 500 µM, compared to untreated larvae.
[8] abbreviates: each amine at 2×10^−4 M, relative to no drug control.
Setting [9] is: 50 µM, compared to untreated larvae.
[10] abbreviates: 100 µM, 3-day-old schistosomula, 5 min after drug addition.

The text below walks through data of paper PMC3289605, “A Novel G Protein-Coupled Receptor of Schistosoma mansoni (SmGPR-3) Is Activated by Dopamine and Is Widely Expressed in the Nervous System” (PLoS Neglected Tropical Diseases, 2012).

Structures are written as SMILES. Where two headings read alike, the source gives them in different places.

`O=C(CCCN1CCC2(CC1)C(=O)NCN2c1ccccc1)c1ccc(F)cc1` [spiperone]: in data set [1] (setting [6]), the “enhancement of SmGPR-3 activity” value was ~2 fold.

Take `CN1CCN2c3ccccc3Cc3ccccc3C2C1` (stereo not shown) [mianserin]: the “inhibition of SmGPR-3 activity” value in data set [1] is listed as “≈ 70%”.

On to `CNCC(O)c1ccc(O)c(OC)c1` (stereo not shown) [metanephrine], for which the “increase in the frequency of body wall movements” value in data set [2] (500 µM) is given as “≈ 3 fold”. In addition, the “effect on motor activity of schistosomula” value (“effect on motor activity” below) in data set [2] (setting [7]) is reported as “marked hyperactivation”. Further, in data set [3] (setting [8]), the “SmGPR-3 activation by biogenic amine” value is recorded as “stimulated SmGPR-3 activity but not to the same extent as dopamine or epinine”.

As for `CN1CCN(C2=Nc3cc(Cl)ccc3Nc3ccccc32)CC1` [clozapine], the “effect on SmGPR-3 activity” value in data set [1] (setting [6]) is reported as “modest or no significant inhibition”.

For the molecule `CC(C)NCC(O)COc1cccc2ccccc12` (stereo not shown) [propranolol], the “effect on SmGPR-3 activity” value in data set [1] (setting [6]) is recorded as “no effect”.

As for `CC(CN1c2ccccc2Sc2ccccc21)N(C)C` (stereo not shown) [promethazine], the “inhibition of SmGPR-2” value in data set [4] is listed as “most potent inhibitors of SmGPR-2”. In addition, the “yeast growth in the presence of histidine (toxicity control)” value (from here on “yeast growth in the presence”) in data set [5] is “normal or nearly normal growth”. Further, the “effect on motor activity” value in data set [2] (setting [9]) is recorded as “significant decrease in motor activity”. Also, the IC50 in data set [1] worked out at 28 µM.

`CN1CCC(=C2c3ccccc3C=Cc3ccccc32)CC1` [cyproheptadine]: the “inhibition of SmGPR-3 activity” value in data set [1] is recorded as “≈ 70%”.

With `OCCN1CCN(CCC=C2c3ccccc3Sc3ccc(C(F)(F)F)cc32)CC1` [flupenthixol], the “inhibition of SmGPR-2” value in data set [4] is “most potent inhibitors of SmGPR-2”. The “yeast growth in the presence” value in data set [5] is listed as “normal or nearly normal growth”. The “effect on motor activity” value in data set [2] (setting [9]) is “significant decrease in motor activity”. The molecule also registered a half-maximal inhibitory concentration (IC50) in data set [1] of 3.9 µM.

As to `O=C(CCCN1CCC(O)(c2ccc(Cl)cc2)CC1)c1ccc(F)cc1` [haloperidol], the “yeast growth in the presence” value in data set [5] was “normal or nearly normal growth”. For the same molecule, in data set [2] (setting [7]), the “effect on motor activity” value is recorded as “no significant motor effects”.

Regarding `CNCCc1ccc(O)c(O)c1` [epinine], the “effect on motor activity” value in data set [2] (setting [9]) is “decrease in motility”; in data set [2] (setting [10]), “virtual paralysis”. Also, the “concentration at which significant inhibition of motility was observed” value in data set [2] is listed as ≥ 10 µM. This molecule showed a concentration giving a half-maximal response (EC50) in data set [3] of 28.5 µM. In data set [3] (setting [8]), the “SmGPR-3 activation by biogenic amine” value is given as “selectively activated”.

Turning to `NCCc1ccc(O)c(O)c1` [dopamine], the “effect on motor activity” value in data set [2] (setting [9]) is “decrease in motility”; in data set [2] (setting [10]) it was “decreased both the amplitude and frequency of contractions”. In addition, the “concentration at which significant inhibition of motility was observed” value in data set [2] is given as ≥ 10 µM. Further, the EC50 in data set [3] was 31 µM. Besides, the “SmGPR-3 activation by biogenic amine” value in data set [3] (setting [8]) is listed as “selectively activated”.

For the molecule `CNC[C@H](O)c1ccc(O)c(O)c1` [adrenaline], the “effect on motor activity” value in data set [2] (setting [7]) is “decrease in motility”. Besides, the “SmGPR-3 activation by biogenic amine” value in data set [3] was “stimulated SmGPR-3 activity but not to the same extent as dopamine or epinine”.

In the case of `NC[C@H](O)c1ccc(O)c(O)c1` [noradrenaline], the “SmGPR-3 activation by biogenic amine” value in data set [3] (setting [8]) was “stimulated SmGPR-3 activity but not to the same extent as dopamine or epinine”.

As a reminder, the IC50 is the concentration that gives 50% inhibition. Read a low IC50 as inhibition by little substance. Usually EC50 stands for the concentration that produces a half-maximal response.
